SMILES: Cc1cc(C)c(C(=O)P(=O)(c2ccccc2)c2ccccc2)c(C)c1
- solubility (mole fraction) (in acetone, 273.15 K): 0.0685
- solubility (mole fraction) (in acetone, 278.15 K): 0.0844
- solubility (mole fraction) (in acetone, 283.15 K): 0.101
- solubility (mole fraction) (in acetone, 288.15 K): 0.12
- solubility (mole fraction) (in acetone, 293.15 K): 0.143
- solubility (mole fraction) (in acetone, 298.15 K): 0.169
- solubility (mole fraction) (in acetone, 303.15 K): 0.197
- solubility (mole fraction) (in acetone, 308.15 K): 0.232
- solubility (mole fraction) (in acetonitrile, 273.15 K): 0.0242
- solubility (mole fraction) (in acetonitrile, 278.15 K): 0.0312
- solubility (mole fraction) (in acetonitrile, 283.15 K): 0.0482
- solubility (mole fraction) (in acetonitrile, 288.15 K): 0.0687
- solubility (mole fraction) (in acetonitrile, 293.15 K): 0.101
- solubility (mole fraction) (in acetonitrile, 298.15 K): 0.144
- solubility (mole fraction) (in acetonitrile, 303.15 K): 0.197
- solubility (mole fraction) (in acetonitrile, 308.15 K): 0.271
- solubility (mole fraction) (in ethanol, 273.15 K): 0.0761
- solubility (mole fraction) (in ethanol, 278.15 K): 0.0895
- solubility (mole fraction) (in ethanol, 283.15 K): 0.107
- solubility (mole fraction) (in ethanol, 288.15 K): 0.13
- solubility (mole fraction) (in ethanol, 293.15 K): 0.154
- solubility (mole fraction) (in ethanol, 298.15 K): 0.184
- solubility (mole fraction) (in ethanol, 303.15 K): 0.218
- solubility (mole fraction) (in ethanol, 308.15 K): 0.266
- solubility (mole fraction) (in ethyl acetate, 273.15 K): 0.043
- solubility (mole fraction) (in ethyl acetate, 278.15 K): 0.0529
- solubility (mole fraction) (in ethyl acetate, 283.15 K): 0.0621
- solubility (mole fraction) (in ethyl acetate, 288.15 K): 0.0819
- solubility (mole fraction) (in ethyl acetate, 293.15 K): 0.102
- solubility (mole fraction) (in ethyl acetate, 298.15 K): 0.126
- solubility (mole fraction) (in ethyl acetate, 303.15 K): 0.16
- solubility (mole fraction) (in ethyl acetate, 308.15 K): 0.194
- solubility (mole fraction) (in isobutanol, 273.15 K): 0.0761
- solubility (mole fraction) (in isobutanol, 278.15 K): 0.0882
- solubility (mole fraction) (in isobutanol, 283.15 K): 0.109
- solubility (mole fraction) (in isobutanol, 288.15 K): 0.133
- solubility (mole fraction) (in isobutanol, 293.15 K): 0.159
- solubility (mole fraction) (in isobutanol, 298.15 K): 0.187
- solubility (mole fraction) (in isobutanol, 303.15 K): 0.22
- solubility (mole fraction) (in isobutanol, 308.15 K): 0.256
- solubility (mole fraction) (in isopropanol, 273.15 K): 0.0262
- solubility (mole fraction) (in isopropanol, 278.15 K): 0.0366
- solubility (mole fraction) (in isopropanol, 283.15 K): 0.0544
- solubility (mole fraction) (in isopropanol, 288.15 K): 0.0755
- solubility (mole fraction) (in isopropanol, 293.15 K): 0.11
- solubility (mole fraction) (in isopropanol, 298.15 K): 0.158
- solubility (mole fraction) (in isopropanol, 303.15 K): 0.21
- solubility (mole fraction) (in isopropanol, 308.15 K): 0.276
- solubility (mole fraction) (in methanol, 273.15 K): 0.11
- solubility (mole fraction) (in methanol, 278.15 K): 0.125
- solubility (mole fraction) (in methanol, 283.15 K): 0.145
- solubility (mole fraction) (in methanol, 288.15 K): 0.172
- solubility (mole fraction) (in methanol, 293.15 K): 0.195
- solubility (mole fraction) (in methanol, 298.15 K): 0.233
- solubility (mole fraction) (in methanol, 303.15 K): 0.272
- solubility (mole fraction) (in methanol, 308.15 K): 0.298
- solubility (mole fraction) (in methyl acetate, 273.15 K): 0.0504
- solubility (mole fraction) (in methyl acetate, 278.15 K): 0.0616
- solubility (mole fraction) (in methyl acetate, 283.15 K): 0.0767
- solubility (mole fraction) (in methyl acetate, 288.15 K): 0.0963
- solubility (mole fraction) (in methyl acetate, 293.15 K): 0.12
- solubility (mole fraction) (in methyl acetate, 298.15 K): 0.149
- solubility (mole fraction) (in methyl acetate, 303.15 K): 0.186
- solubility (mole fraction) (in methyl acetate, 308.15 K): 0.229
- solubility (mole fraction) (in n-butanol, 273.15 K): 0.0795
- solubility (mole fraction) (in n-butanol, 278.15 K): 0.092
- solubility (mole fraction) (in n-butanol, 283.15 K): 0.116
- solubility (mole fraction) (in n-butanol, 288.15 K): 0.139
- solubility (mole fraction) (in n-butanol, 293.15 K): 0.162
- solubility (mole fraction) (in n-butanol, 298.15 K): 0.2
- solubility (mole fraction) (in n-butanol, 303.15 K): 0.236
- solubility (mole fraction) (in n-butanol, 308.15 K): 0.271
- solubility (mole fraction) (in n-propanol, 273.15 K): 0.0827
- solubility (mole fraction) (in n-propanol, 278.15 K): 0.0983
- solubility (mole fraction) (in n-propanol, 283.15 K): 0.118
- solubility (mole fraction) (in n-propanol, 288.15 K): 0.139
- solubility (mole fraction) (in n-propanol, 293.15 K): 0.168
- solubility (mole fraction) (in n-propanol, 298.15 K): 0.196
- solubility (mole fraction) (in n-propanol, 303.15 K): 0.226
- solubility (mole fraction) (in n-propanol, 308.15 K): 0.262

From BigSolDB 2.1
